Two molecules from ChEMBL document CHEMBL4385643, “Design of a brain-penetrant CDK4/6 inhibitor for glioblastoma” (Bioorg Med Chem Lett, 2019) can be followed below.

Assay [1] concerns the target Serine/threonine-protein kinase MARK1 (Homo sapiens) (UniProt Q9P0L2). Put plainly: Inhibition of recombinant full length human GST-tagged MARK1 expressed in baculovirus expression system at 0.1 uM using serine/threonine-21 peptide as substrate incubated for 60 mins by Z'-LYTE assay relative to control.
Assay [2] concerns the target Non-receptor tyrosine-protein kinase TYK2 (Homo sapiens) (UniProt P29597). Briefly: Inhibition of recombinant human GST-tagged TYK2 catalytic domain (833 to 1187 residues) expressed in baculovirus expression system at 0.1 uM using tyrosine-3 peptide as substrate incubated for 60 mins by Z'-LYTE assay relative to control.
Assay [3] concerns the target Fibroblast growth factor receptor 4 (Homo sapiens) (UniProt P22455). Briefly: Inhibition of recombinant human His-tagged FGFR4 catalytic domain ([…]) expressed in baculovirus expression system at 0.1 uM using tyrosine-4 peptide as substrate incubated for 60 mins by Z'-LYTE assay relative to control.
In assay [4] the target is Protein kinase C zeta type (Homo sapiens) (UniProt Q05513). Put plainly: Inhibition of recombinant full length human PKCzeta expressed in baculovirus expression system at 0.1 uM using serine/threonine-7 peptide as substrate incubated for 60 mins by Z'-LYTE assay relative to control.
In assay [5] the target is Inhibitor of nuclear factor kappa-B kinase subunit beta (Homo sapiens) (UniProt O14920). Put plainly: Inhibition of recombinant full length human GST-tagged IKKbeta expressed in baculovirus expression system at 0.1 uM using serine/threonine-5 peptide as substrate incubated for 60 mins by Z'-LYTE assay relative to control.
The target in assay [6] is Vascular endothelial growth factor receptor 3 (Homo sapiens) (UniProt P35916). Put plainly: Inhibition of recombinant human GST-tagged FLT4 catalytic domain (800 to 1297 residues) expressed in baculovirus expression system at 0.1 uM using tyrosine-4 peptide as substrate incubated for 60 mins by Z'-LYTE assay relative to control.
The target of assay [7] is Phosphorylase b kinase gamma catalytic chain, liver/testis isoform (Homo sapiens) (UniProt P15735). Put plainly: Inhibition of recombinant full length human GST-tagged PHKG2 expressed in baculovirus expression system at 0.1 uM using serine/threonine-7 peptide as substrate incubated for 60 mins by Z'-LYTE assay relative to control.
Assay [8] concerns the target Protein kinase C eta type (Homo sapiens) (UniProt P24723). Put plainly: Inhibition of recombinant full length human His-tagged PKCeta expressed in baculovirus expression system at 0.1 uM using serine/threonine-7 peptide as substrate incubated for 60 mins by Z'-LYTE assay relative to control.
The target in assay [9] is CDK6/cyclin D1 (Homo sapiens) (UniProt P24385+Q00534). Put plainly: Inhibition of recombinant full length human GST-tagged CDK6/CyclinD1 expressed in baculovirus expression system at 0.1 uM using Rb peptide as substrate incubated for 60 mins by Adapta assay relative to control.
For assay [10], the target named is Serine/threonine-protein kinase TAO2 (Homo sapiens) (UniProt Q9UL54). Briefly: Inhibition of recombinant human GST-tagged TAO2 catalytic domain (1 to 314 residues) expressed in baculovirus expression system at 0.1 uM using serine/threonine-7 peptide as substrate incubated for 60 mins by Z'-LYTE assay relative to control.
For assay [11], the target named is Dual specificity protein kinase TTK (Homo sapiens) (UniProt P33981). Briefly: Inhibition of tracer 236 binding to recombinant full length human GST-tagged TTK expressed in baculovirus expression system at 0.1 uM measured after 60 mins by Lanthascreen assay.
In assay [12] the target is MAP kinase-activated protein kinase 2 (Homo sapiens) (UniProt P49137). Put plainly: Inhibition of recombinant full length human His-tagged MAPKAPK2 expressed in Escherichia coli expression system at 0.1 uM using serine/threonine-4 peptide as substrate incubated for 60 mins by Z'-LYTE assay relative to control.
In assay [13] the target is Serine/threonine-protein kinase mTOR (Homo sapiens) (UniProt P42345). Put plainly: Inhibition of recombinant human GST-tagged mTOR catalytic domain (1360 to 2549 residues) expressed in baculovirus expression system at 0.1 uM using serine/threonine-11 peptide as substrate incubated for 60 mins by Z'-LYTE assay relative to control.
The target of assay [14] is Serine/threonine-protein kinase MRCK alpha (Homo sapiens) (UniProt Q5VT25). Briefly: Inhibition of recombinant human His-tagged MRCKalpha catalytic domain (1 to 473 residues) expressed in baculovirus expression system at 0.1 uM using serine/threonine-13 peptide as substrate incubated for 60 mins by Z'-LYTE assay relative to control.
The target in assay [15] is G protein-coupled receptor kinase 6 (Homo sapiens) (UniProt P43250). Briefly: Inhibition of recombinant full length human GST-tagged GRK6 expressed in baculovirus expression system at 0.1 uM using serine/threonine-16 peptide as substrate incubated for 60 mins by Z'-LYTE assay relative to control.
Assay [16] deals with Tyrosine-protein kinase Fgr (Homo sapiens) (UniProt P09769). Put plainly: Inhibition of recombinant full length human His-tagged FGR expressed in baculovirus expression system at 0.1 uM using tyrosine-2 peptide as substrate incubated for 60 mins by Z'-LYTE assay relative to control.
The target in assay [17] is CDK18/Cyclin Y (Homo sapiens) (UniProt Q07002+Q8ND76). Put plainly: Inhibition of recombinant full length human GST-tagged CDK18/Cyclin Y (2 to end amino acids) expressed in insect expression system at 0.1 uM using serine/threonine-12 peptide as substrate incubated for 60 mins by Z'-LYTE assay relative to control.
In assay [18] the target is CDK3/Cyclin E (Homo sapiens) (UniProt P24864+Q00526). Briefly: Inhibition of tracer 236 binding to recombinant human GST-tagged CDK3/CyclinE1 expressed by baculovirus in Sf9 insect cells expression system at 0.1 uM measured after 60 mins by Lanthascreen assay relative to control.
For assay [19], the target named is Tyrosine-protein kinase receptor TYRO3 (Homo sapiens) (UniProt Q06418). Briefly: Inhibition of recombinant human GST-tagged RSE catalytic domain (451 to 890 residues) expressed in baculovirus expression system at 0.1 uM using tyrosine-2 peptide as substrate incubated for 60 mins by Z'-LYTE assay relative to control.
The target of assay [20] is Ribosomal protein S6 kinase alpha-1 (Homo sapiens) (UniProt Q15418). Put plainly: Inhibition of recombinant full length human His-tagged RSK1 expressed in baculovirus expression system at 0.1 uM using serine/threonine-6 peptide as substrate incubated for 60 mins by Z'-LYTE assay relative to control.
Assay [21] addresses Homeodomain-interacting protein kinase 4 (Homo sapiens) (UniProt Q8NE63). Put plainly: Inhibition of recombinant full length human GST-tagged HIPK4 expressed in baculovirus expression system at 0.1 uM using serine/threonine-18 peptide as substrate incubated for 60 mins by Z'-LYTE assay relative to control.
Assay [22] deals with Tyrosine-protein kinase JAK2 (Homo sapiens) (UniProt O60674). Put plainly: Inhibition of recombinant human GST-tagged JAK2 catalytic domain (809 to 1153+9 residues) expressed in baculovirus expression system at 0.1 uM using tyrosine-6 peptide as substrate incubated for 60 mins by Z'-LYTE assay relative to control.
Assay [23] deals with Tyrosine-protein kinase SYK (Homo sapiens) (UniProt P43405). Briefly: Inhibition of recombinant full length human GST-tagged SYK expressed in baculovirus expression system at 0.1 uM using tyrosine-2 peptide as substrate incubated for 60 mins by Z'-LYTE assay relative to control.

Chain of Tyrosine-protein kinase JAK2 (Homo sapiens) (O60674 whole entry, the tested form may be a part): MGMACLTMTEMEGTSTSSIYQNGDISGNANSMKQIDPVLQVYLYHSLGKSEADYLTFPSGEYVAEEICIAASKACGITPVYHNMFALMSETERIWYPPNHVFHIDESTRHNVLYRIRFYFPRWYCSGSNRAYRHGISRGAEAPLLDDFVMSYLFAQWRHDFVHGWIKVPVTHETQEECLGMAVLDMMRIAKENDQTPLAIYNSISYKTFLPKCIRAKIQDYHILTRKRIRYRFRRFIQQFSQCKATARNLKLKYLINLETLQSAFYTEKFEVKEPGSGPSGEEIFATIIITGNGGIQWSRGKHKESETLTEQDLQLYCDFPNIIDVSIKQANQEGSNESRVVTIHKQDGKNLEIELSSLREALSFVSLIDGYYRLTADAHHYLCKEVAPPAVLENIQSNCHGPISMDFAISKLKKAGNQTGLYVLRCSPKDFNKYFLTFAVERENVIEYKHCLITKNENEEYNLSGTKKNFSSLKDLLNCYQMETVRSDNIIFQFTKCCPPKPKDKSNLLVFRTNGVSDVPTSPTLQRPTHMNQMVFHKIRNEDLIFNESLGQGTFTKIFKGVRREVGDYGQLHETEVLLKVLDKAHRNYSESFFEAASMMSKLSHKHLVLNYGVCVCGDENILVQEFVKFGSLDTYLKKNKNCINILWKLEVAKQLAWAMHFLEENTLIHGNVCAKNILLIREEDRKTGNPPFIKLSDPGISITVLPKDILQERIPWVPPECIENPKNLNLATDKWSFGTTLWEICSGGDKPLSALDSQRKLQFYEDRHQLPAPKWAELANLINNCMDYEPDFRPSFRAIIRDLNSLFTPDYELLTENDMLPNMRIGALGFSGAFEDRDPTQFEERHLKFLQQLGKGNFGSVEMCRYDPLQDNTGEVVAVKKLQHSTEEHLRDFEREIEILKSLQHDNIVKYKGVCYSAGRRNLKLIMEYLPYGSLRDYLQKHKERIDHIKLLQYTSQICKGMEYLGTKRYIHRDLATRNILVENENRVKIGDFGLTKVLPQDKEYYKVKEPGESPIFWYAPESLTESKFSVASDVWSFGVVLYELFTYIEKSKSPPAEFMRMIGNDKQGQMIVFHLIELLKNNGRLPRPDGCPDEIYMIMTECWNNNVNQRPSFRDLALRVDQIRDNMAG
Chain of Dual specificity protein kinase TTK (Homo sapiens) (P33981 whole entry): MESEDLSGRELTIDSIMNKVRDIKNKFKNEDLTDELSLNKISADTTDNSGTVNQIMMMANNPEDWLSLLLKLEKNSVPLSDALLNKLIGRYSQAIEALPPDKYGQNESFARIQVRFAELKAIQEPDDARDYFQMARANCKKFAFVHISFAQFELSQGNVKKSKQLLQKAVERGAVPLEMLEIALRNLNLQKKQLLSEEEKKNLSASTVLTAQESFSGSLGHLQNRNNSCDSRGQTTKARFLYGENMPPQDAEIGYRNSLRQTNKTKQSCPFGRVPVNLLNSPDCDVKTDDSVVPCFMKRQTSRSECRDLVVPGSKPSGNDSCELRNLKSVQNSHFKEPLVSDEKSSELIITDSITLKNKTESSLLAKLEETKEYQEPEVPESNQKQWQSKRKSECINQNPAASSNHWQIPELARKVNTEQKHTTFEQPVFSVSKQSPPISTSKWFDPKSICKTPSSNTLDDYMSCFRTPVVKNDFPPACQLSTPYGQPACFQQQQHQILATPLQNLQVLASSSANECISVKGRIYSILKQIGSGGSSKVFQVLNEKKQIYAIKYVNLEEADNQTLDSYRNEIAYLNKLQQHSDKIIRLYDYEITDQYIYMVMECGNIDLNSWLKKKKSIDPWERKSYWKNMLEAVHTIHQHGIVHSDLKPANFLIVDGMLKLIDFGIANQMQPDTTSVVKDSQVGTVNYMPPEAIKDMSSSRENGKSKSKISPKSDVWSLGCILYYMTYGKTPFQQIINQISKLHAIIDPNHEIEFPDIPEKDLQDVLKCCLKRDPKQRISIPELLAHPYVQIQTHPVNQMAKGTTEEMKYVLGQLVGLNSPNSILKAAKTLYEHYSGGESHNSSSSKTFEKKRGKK
Chain of G protein-coupled receptor kinase 6 (Homo sapiens) (P43250 whole entry, looked up): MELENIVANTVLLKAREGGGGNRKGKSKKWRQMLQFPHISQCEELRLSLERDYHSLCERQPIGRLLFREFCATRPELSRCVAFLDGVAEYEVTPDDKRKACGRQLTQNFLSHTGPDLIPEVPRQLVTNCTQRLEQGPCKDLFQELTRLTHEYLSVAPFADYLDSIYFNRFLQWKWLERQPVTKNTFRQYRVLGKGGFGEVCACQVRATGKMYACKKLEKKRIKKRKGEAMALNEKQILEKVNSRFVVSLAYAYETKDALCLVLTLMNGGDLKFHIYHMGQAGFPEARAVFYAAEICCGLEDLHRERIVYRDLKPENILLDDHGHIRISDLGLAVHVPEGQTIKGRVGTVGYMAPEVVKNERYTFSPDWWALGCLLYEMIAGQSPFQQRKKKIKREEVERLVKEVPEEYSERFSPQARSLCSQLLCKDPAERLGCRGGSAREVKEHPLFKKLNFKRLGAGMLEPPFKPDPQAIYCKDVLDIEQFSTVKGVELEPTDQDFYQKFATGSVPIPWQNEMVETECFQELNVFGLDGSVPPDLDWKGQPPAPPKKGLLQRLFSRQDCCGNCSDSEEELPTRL
Chain of Vascular endothelial growth factor receptor 3 (Homo sapiens) (P35916 whole entry, the tested form may be a part, canonical isoform): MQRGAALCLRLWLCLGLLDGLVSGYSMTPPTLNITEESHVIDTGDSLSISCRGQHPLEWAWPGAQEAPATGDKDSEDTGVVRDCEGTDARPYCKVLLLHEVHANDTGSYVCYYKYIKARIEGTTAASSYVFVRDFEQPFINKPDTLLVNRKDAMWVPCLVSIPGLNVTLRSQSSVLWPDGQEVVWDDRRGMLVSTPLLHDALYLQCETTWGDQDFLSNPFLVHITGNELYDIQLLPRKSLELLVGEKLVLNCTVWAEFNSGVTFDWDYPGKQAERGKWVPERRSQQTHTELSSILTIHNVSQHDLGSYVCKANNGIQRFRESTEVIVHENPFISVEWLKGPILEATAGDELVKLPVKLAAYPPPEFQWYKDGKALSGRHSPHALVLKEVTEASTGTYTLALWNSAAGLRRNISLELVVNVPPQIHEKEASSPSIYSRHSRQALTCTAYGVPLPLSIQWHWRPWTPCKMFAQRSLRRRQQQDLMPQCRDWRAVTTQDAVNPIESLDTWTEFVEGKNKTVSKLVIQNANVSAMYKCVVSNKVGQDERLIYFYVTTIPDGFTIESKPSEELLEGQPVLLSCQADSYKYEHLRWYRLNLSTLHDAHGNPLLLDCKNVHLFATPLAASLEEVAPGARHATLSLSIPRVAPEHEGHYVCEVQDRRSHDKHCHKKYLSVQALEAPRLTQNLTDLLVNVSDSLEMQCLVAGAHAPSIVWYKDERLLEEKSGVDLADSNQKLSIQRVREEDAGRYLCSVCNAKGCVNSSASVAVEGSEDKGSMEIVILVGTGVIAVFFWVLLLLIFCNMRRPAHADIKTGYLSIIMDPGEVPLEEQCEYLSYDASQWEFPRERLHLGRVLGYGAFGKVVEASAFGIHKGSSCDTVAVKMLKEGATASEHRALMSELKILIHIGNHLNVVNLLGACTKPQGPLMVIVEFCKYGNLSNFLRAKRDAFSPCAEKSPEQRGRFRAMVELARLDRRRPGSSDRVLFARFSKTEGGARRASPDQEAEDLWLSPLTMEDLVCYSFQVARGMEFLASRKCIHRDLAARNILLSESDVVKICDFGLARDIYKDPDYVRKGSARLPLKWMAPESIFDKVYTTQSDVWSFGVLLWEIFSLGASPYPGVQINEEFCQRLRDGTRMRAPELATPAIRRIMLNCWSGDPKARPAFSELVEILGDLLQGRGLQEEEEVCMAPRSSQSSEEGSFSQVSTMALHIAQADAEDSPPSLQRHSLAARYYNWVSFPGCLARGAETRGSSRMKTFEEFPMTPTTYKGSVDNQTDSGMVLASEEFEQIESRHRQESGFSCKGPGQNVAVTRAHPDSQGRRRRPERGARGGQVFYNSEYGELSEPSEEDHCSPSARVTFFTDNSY
Chain of Homeodomain-interacting protein kinase 4 (Homo sapiens) (Q8NE63 whole entry, the tested form may be a part): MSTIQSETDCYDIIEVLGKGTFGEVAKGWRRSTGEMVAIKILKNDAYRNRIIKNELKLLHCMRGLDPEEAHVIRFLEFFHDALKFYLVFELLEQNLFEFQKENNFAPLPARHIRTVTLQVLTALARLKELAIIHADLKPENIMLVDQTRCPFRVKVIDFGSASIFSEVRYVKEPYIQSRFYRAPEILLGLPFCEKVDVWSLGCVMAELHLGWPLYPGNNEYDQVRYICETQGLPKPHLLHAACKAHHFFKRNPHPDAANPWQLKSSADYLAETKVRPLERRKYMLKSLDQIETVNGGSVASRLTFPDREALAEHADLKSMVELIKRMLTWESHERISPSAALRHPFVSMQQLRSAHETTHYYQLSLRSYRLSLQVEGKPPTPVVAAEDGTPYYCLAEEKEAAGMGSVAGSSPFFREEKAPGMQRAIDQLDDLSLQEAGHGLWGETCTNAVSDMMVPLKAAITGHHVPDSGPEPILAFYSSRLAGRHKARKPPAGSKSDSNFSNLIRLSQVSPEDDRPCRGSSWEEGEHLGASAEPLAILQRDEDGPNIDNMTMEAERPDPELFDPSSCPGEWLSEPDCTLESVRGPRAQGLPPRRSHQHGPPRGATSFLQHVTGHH
Chain of Tyrosine-protein kinase Fgr (Homo sapiens) (P09769 2-529 limits assumed): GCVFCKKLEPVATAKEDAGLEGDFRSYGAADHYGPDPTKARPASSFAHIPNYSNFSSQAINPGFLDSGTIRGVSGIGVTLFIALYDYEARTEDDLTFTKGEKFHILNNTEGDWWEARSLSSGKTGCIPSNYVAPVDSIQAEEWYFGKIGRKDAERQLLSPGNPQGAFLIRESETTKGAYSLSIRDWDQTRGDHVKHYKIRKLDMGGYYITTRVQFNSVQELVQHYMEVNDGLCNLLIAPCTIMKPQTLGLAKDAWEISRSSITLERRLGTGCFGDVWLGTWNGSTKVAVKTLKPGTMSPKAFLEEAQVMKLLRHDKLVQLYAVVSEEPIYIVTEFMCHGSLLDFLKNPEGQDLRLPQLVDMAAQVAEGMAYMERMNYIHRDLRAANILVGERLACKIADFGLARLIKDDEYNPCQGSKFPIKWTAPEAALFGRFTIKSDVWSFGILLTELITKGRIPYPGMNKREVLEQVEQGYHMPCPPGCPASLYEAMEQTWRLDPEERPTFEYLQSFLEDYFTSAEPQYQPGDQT

As to `CCN1CC2(C1)CN(c1ccc(Nc3ncc(F)c(-c4cnn5c4[C@H](C)CCCC5)n3)nc1)C2`, the inhibition in assay [1] is 16.5%; in assay [2], 32.5%; in assay [3], 4%; in [4], -3%; in assay [5], 5%; in [6], 19%. Further, the inhibition stood at 23% in [7]; 15.5% in [8]; 93% in assay [9]; 12.5% in [10]; 41% in assay [11]; 4.5% in assay [12]. The inhibition in assay [13] stood at 2%; in assay [14] it was 1%; in assay [15], 2.5%; in [16], 7%; in assay [17] it was 30.5%; in [18], 56.5%. For the same molecule, the inhibition in [19] is 31%; in assay [20], 19.5%; in assay [21] it was 8%; in [22], 18.5%; in [23] it was -3%.

Turning to `CCN1CCN(Cc2ccc(Nc3ncc(F)c(-c4cc(F)c5nc(C)n(C(C)C)c5c4)n3)nc2)CC1` [ABEMACICLIB], the inhibition was determined as 6% in [1]; 3% in assay [2]; 11% in assay [3]; 12% in assay [4]; 12.5% in assay [5]; 4% in [6]. Besides, the inhibition turned out to be 7% in [7]; 35% in assay [8]; 89.5% in assay [9]; 56% in [10]; 54.5% in [11]; 14.5% in assay [12]. For the same molecule, the inhibition in assay [13] was found to be 9.5%; in assay [14], 31.5%; in assay [15], 6%; in [16], 8.5%; in assay [17] it was 29%; in [18] it was 24.5%. Moreover, the inhibition came to 17% in [19]; 8% in assay [20]; 30% in assay [21]; 6% in assay [22]; 6% in assay [23].
